“And” between values parts separate entries of the source, which are not always exact repeats. Identical values can stand only once.
These compounds were tested against human P2X3 receptor (Homo sapiens (Human), UniProt P56373) (assay: Evaluation of human P2X3 receptor inhibitory activity (Fluo-3 calcium fluorescence, FDSS 3000, ATP stimulation)). Settings: C6BU-1 cells stably expressing human P2X3 receptor.
Assay type: cell-based
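Further: stimulus was 50 nM ATP with fluorescence followed for 3 min, and the response per well was peak post-ATP fluorescence divided by the reading at measurement start.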

Sequence of human P2X3 receptor (P56373 whole entry): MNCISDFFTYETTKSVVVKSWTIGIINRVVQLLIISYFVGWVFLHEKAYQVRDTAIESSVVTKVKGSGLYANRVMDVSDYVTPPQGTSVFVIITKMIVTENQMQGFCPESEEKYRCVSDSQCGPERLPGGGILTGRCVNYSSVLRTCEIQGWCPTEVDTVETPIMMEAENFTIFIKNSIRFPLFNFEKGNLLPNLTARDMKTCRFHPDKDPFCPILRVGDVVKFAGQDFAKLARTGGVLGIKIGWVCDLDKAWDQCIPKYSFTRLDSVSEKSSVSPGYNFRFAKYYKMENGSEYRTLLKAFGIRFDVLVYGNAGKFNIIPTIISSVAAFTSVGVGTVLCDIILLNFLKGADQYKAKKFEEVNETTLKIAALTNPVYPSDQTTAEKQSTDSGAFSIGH

SMILES	IC50
CC1Cc2cc(/N=c3\[nH]c(=O)n(C[C@H](C)C(=O)O)c(=O)n3Cc3ccc(Cl)cc3)ccc2O1 (stereo partly shown) [Compound I-1466]	121 nM
Cc1ccc(Cn2c(=O)n(C[C@H](C)C(=O)O)c(=O)[nH]/c2=N\c2ccc(CC(C)C)nc2)cc1 [Compound I-1359]	724 nM
COC(=O)[C@H](C)[C@H](C)n1c(=O)[nH]/c(=N\c2ccc(OC3CCC3)cc2)n(Cc2ccc(C)cc2)c1=O [Compound I-1379]	10 nM
Cc1cc2cc(/N=c3\[nH]c(=O)n(CC(CO)CO)c(=O)n3Cc3ccc(Cl)cc3)ccc2o1 [Compound I-2070]	19 nM
COC(=O)[C@@H](C)Cn1c(=O)[nH]/c(=N\c2ccc(CC(C)C)c(Cl)c2)n(Cc2ccc(Cl)cc2)c1=O [Compound I-1370]	19 nM
CC(C)Oc1ccc(/N=c2\[nH]c(=O)n(Cc3n[nH]c(=O)o3)c(=O)n2Cc2ccc(Cl)cc2)cc1F [Compound I-0643]	54 nM
COC(=O)[C@@H](C)[C@@H](C)n1c(=O)[nH]/c(=N\c2ccc(OC(C)C)c(C)c2)n(Cc2ccc(Cl)cc2)c1=O [Compound I-0811]	40 nM
CC(C)Oc1ccc(/N=c2\[nH]c(=O)n(C3C[C@H]3C(=O)O)c(=O)n2Cc2ccc(Cl)cc2)cc1F (stereo partly shown) [Compound I-0674]	126 nM
O=C(O)CCn1c(=O)[nH]/c(=N\c2ccc(Oc3cccc(F)c3)cc2)n(Cc2ccc(Cl)cc2)c1=O [Compound I-1951]	25 nM
Cc1ccc(Cn2c(=O)n(C[C@H](C)C(=O)O)c(=O)[nH]/c2=N\c2ccc(C(=O)C3CC3)cc2)cc1 [Compound I-1305]	227 nM
CCn1c(=O)[nH]/c(=N\c2ccc(Oc3nc(C(=O)O)cs3)cc2)n(Cc2ccc(Cl)cc2)c1=O [Compound I-2193]	6 nM
COC(=O)[C@H](C)[C@H](C)n1c(=O)[nH]/c(=N\c2ccc(OC3CCC3)cc2)n(Cc2ccc(Cl)cc2)c1=O [Compound I-1378]	12 nM
CCn1c(=O)[nH]/c(=N\c2ccc(Oc3ncc(C(=O)O)o3)cc2)n(Cc2ccc(Cl)cc2)c1=O [Compound I-2189]	47 nM and 51 nM
Cc1cc(Oc2ccc(/N=c3\[nH]c(=O)n(C[C@H](O)CO)c(=O)n3Cc3ccc(Cl)cc3)cc2)ccn1 [Compound I-1987]	7 nM
COC(=O)[C@@H](C)Cn1c(=O)[nH]/c(=N\c2ccc(OC(C)C)c(C)c2)n(Cc2ccc(C)cc2)c1=O [Compound I-0670]	8 nM
CCc1oc2ccc(/N=c3\[nH]c(=O)n(C[C@H](C)C(=O)O)c(=O)n3Cc3ccc(Cl)cc3)cc2c1C [Compound I-1465]	6 nM
CC(C)NC(=O)c1ccc(/N=c2\[nH]c(=O)n(C[C@H](C)C(=O)O)c(=O)n2Cc2ccc(Cl)cc2)cc1Cl [Compound I-1414]	986 nM
Cc1cc(Oc2ccc(/N=c3\[nH]c(=O)[nH]c(=O)n3Cc3ccc(Cl)cc3)cc2)ccn1 [Compound I-1955]	97 nM
O=c1[nH]/c(=N\c2ccc(OC3CCC3)cc2)n(Cc2ccc(Cl)cc2)c(=O)n1CCO [Compound I-2010]	54 nM
Cc1ccc(Cn2c(=O)n(C[C@H](C)C(=O)O)c(=O)[nH]/c2=N\c2ccc(Cc3ccncc3)cc2)cc1 [Compound I-1262]	163 nM
COC(=O)[C@H](C)[C@H](C)n1c(=O)[nH]/c(=N\c2ccc3oc(C)cc3c2)n(Cc2ccc(Cl)cc2)c1=O [Compound I-1323]	33 nM
CCOC(=O)CCn1c(=O)[nH]/c(=N\c2ccc(CC(C)C)c(F)c2)n(Cc2ccc(C)cc2)c1=O [Compound I-1298]	26 nM

Same assay, conditions: C6BU-1 cells stably expressing human P2X3 receptor, Fluo-3 fluorescence, FDSS 3000

SMILES	IC50 [nM]
C[C@@H](C(=O)O)[C@H](C)n1c(=O)[nH]/c(=N\c2ccc3ncsc3c2)n(Cc2ccc(Cl)cc2)c1=O [Compound I-1589]	158
CCc1oc2ccc(/N=c3\[nH]c(=O)n(CC(CO)CO)c(=O)n3Cc3ccc(Cl)cc3)cc2c1C [Compound I-1842]	5
CC(C)n1ncc2cc(/N=c3\[nH]c(=O)n([C@@H](C)[C@@H](C)C(=O)O)c(=O)n3Cc3ccc(Cl)cc3)ccc21 [Compound I-1744]	242
C[C@@H](C(=O)O)[C@H](C)n1c(=O)[nH]/c(=N\c2ccc3c(c2)OC(F)(F)C(F)(F)O3)n(Cc2ccc(Cl)cc2)c1=O [Compound I-1783]	170
COC(=O)C(=O)Cn1c(=O)[nH]/c(=N\c2ccc(OC(C)C)c(C)c2)n(Cc2ccc(Cl)cc2)c1=O [Compound I-0996, 1-(4-chlorobenzyl)-6-(3-mehyl-4-isopropoxyphenylimino)-3-(2-methoxycarbonyl-2-oxoethyl)-1,3,5-triazinane-2,4-dion]	32
CCc1oc2ccc(/N=c3\[nH]c(=O)n(CCCC(=O)O)c(=O)n3Cc3ccc(C)cc3)cc2c1C [Compound I-1630]	15
Cc1ccc(Cn2c(=O)n(CCC(=O)O)c(=O)[nH]/c2=N\c2ccc3nc(C4CC4)sc3c2)cc1 [Compound I-1561]	32
COC(=O)Cn1c(=O)[nH]/c(=N\c2ccc(Oc3ccc(OC)nc3)cc2)n(Cc2ccc(Cl)cc2)c1=O [Compound I-1753]	9
CCOc1ccc(/N=c2\[nH]c(=O)n(C[C@H](C)C(=O)O)c(=O)n2Cc2ccc(C)cc2)cc1Br [Compound I-1179]	33
COC(=O)CC1(Cn2c(=O)[nH]/c(=N\c3ccc(OC(C)C)c(C)c3)n(Cc3ccc(C)cc3)c2=O)CC1 [Compound I-0980]	11
Cc1cc(/N=c2\[nH]c(=O)n(CC3CCN(CC(=O)O)CC3)c(=O)n2Cc2ccc(Cl)cc2)ccc1OC(C)C [Compound I-1648]	160
CCOC(=O)CCn1c(=O)[nH]/c(=N\c2ccc(Oc3ccc(F)cc3)cc2)n(Cc2ccc(Cl)cc2)c1=O [Compound I-1872]	15
Cc1nc2ccc(/N=c3\[nH]c(=O)n(CC(C)(C)C(=O)O)c(=O)n3Cc3ccc(Cl)cc3)cc2s1 [Compound I-1576]	8
CCCOc1ccc(/N=c2\[nH]c(=O)n([C@@H](C)[C@@H](C)C(=O)OC)c(=O)n2Cc2ccc(C)cc2)cc1 [Compound I-0926]	31
Cc1ccc(Cn2c(Nc3ccc(OC(C)C)cc3)nc(=O)n(C(C)C)c2=O)cc1[N+](=O)[O-] [Compound I-0218]	505
CC1(C)OCC(Cn2c(=O)nc(Cc3cccc(C(F)(F)F)c3)n(Cc3ccc(Cl)cc3)c2=O)CO1 [Compound I-1642]	551
CC[C@H](C)COc1ccc(/N=c2\[nH]c(=O)n(CCC(=O)O)c(=O)n2Cc2ccc(C)cc2)cc1 [Compound I-1066]	425
CCn1c(=O)[nH]/c(=N\c2ccc(Oc3cccc(C(=O)O)c3)cc2)n(Cc2ccc(Cl)cc2)c1=O [Compound I-1881]	6
C#Cc1ccc(Cn2c(=O)n(C[C@H](C)C(=O)O)c(=O)[nH]/c2=N\c2ccc(OC(C)C)c(C)c2)cc1 [Compound I-0946]	239
CCOC(=O)CCn1c(=O)[nH]/c(=N\c2ccc(OC(C)C)c(C)c2)n(Cc2ccc(C)cc2)c1=O [Compound I-1156]	6
CCOC(=O)C1(Cn2c(=O)[nH]/c(=N\c3ccc(OCC(C)C)cc3)n(Cc3ccc(Cl)cc3)c2=O)CC1 [Compound I-1007]	15

Same assay, conditions: human P2X3 receptor, Test Example 1

SMILES	IC50 [nM]
Cn1c(=O)[nH]/c(=N\c2ccc(Oc3cc(C#N)ccn3)cc2)n(Cc2ccc(Cl)cc2)c1=O [Compound I-2341]	10
CCOC(=O)C1(Cn2c(=O)[nH]/c(=N\c3ccc4nc(CC)sc4c3)n(Cc3ccc(C)cc3)c2=O)CC1 [Compound I-1547]	3
CCn1c(=O)[nH]/c(=N\c2ccc(Oc3cnc(C#N)nc3)cc2)n(Cc2ccc(Cl)cc2)c1=O [Compound I-2281]	2
CSc1n/c(=N\c2ccc(OC(C)C)cc2)n(Cc2ccc(Cl)cc2)c(=O)n1C(C)C [Compound I-2301]	437
Cc1cc(Oc2ccc(/N=c3\[nH]c(=O)n(C[C@H]4COC(C)(C)O4)c(=O)n3Cc3ccc(Cl)cc3)cc2)n(C)n1 [Compound I-2368]	13
CNC(=O)Cn1c(=O)[nH]/c(=N\c2ccc(Oc3ncns3)cc2)n(Cc2ccc(Cl)cc2)c1=O [Compound I-2673]	7
CCc1nc2ccc(/N=c3\[nH]c(=O)n(CC4(C(=O)O)CC4)c(=O)n3Cc3ccc(Cl)cc3)cc2s1 [Compound I-1553]	11
COC(=O)[C@@H](C)Cn1c(=O)[nH]/c(=N\c2ccc(CC(C)(C)O)c(Cl)c2)n(Cc2ccc(C)cc2)c1=O [Compound I-1527]	5
CC1(C)OCC(Cn2c(=O)[nH]/c(=N\c3ccc(Oc4ccon4)cc3)n(Cc3ccc(Cl)cc3)c2=O)CO1 [Compound I-2287]	< 4
O=c1[nH]/c(=N\c2ccc(Oc3ccnc(F)c3)cc2)n(Cc2ccc(Cl)cc2)c(=O)n1CC(CO)CO [Compound I-2705]	3
O=c1[nH]/c(=N\c2ccc(Oc3cnsn3)cc2)n(Cc2ccc(Cl)cc2)c(=O)n1CC(CO)CO [Compound I-2478]	5
Cc1nsc(Oc2ccc(/N=c3\[nH]c(=O)n(CC(C)(CO)CO)c(=O)n3Cc3ccc(F)cc3)cc2)n1 [Compound I-2571]	7
O=C(O)CCn1c(=O)[nH]/c(=N\c2ccc(Oc3ncns3)cc2)n(Cc2ccc(Cl)cc2)c1=O [Compound I-2698]	25
CCOC(=O)C1(Cn2c(=O)[nH]/c(=N\c3ccc4nc(C)sc4c3)n(Cc3ccc(Cl)cc3)c2=O)CC1 [Compound I-1537]	3
C=C(C)c1ccc(/N=c2\[nH]c(=O)n(C[C@H](C)C(=O)O)c(=O)n2Cc2ccc(C)cc2)cc1Cl [Compound I-1492]	461
Cc1nsc(Oc2ccc(/N=c3\[nH]c(=O)n(CC(CO)CO)c(=O)n3Cc3ccc(Cl)cc3)cc2)n1 [Compound I-2520]	2
CCn1c(=O)[nH]/c(=N\c2ccc(Oc3ccnc(C(N)=O)c3)cc2)n(Cc2ccc(F)cc2)c1=O [Compound I-2361]	15
CCn1c(=O)[nH]/c(=N\c2ccc(Oc3cc(C#N)ccn3)cc2)n(Cc2ccc(Cl)cc2)c1=O [Compound I-2227]	4
CCc1oc2ccc(/N=c3\[nH]c(=O)n(CCC(=O)O)c(=O)n3Cc3ccc(C)cc3)cc2c1C [Compound I-1508]	18
Cc1ccc(Cn2c(=O)n(C)c(=O)[nH]/c2=N\c2ccc(Oc3cc(C(=O)O)ccn3)cc2)cc1 [Compound I-2343]	19
O=C(O)Cn1c(=O)[nH]/c(=N\c2ccc(Oc3cccnn3)cc2)n(Cc2ccc(Cl)cc2)c1=O [Compound I-2663]	330
